According to PubChem BioAssay AID2060503 (Molecular Pharmacology Branch, DTP, NCI, 2025):
pIC50: −log10 of the molar value.

Test system: 817829-284-R-J1-PDC complex spheroids, viability
Experiment: Anticancer human tumor 817829-284-R-J1-PDC patient-derived colon adenocarcinoma cell line growth inhibition [GQUAD]
Settings: for pIC50: curve of first compound; for viability, T/C: stronger effect = lower value
Procedure, shortened: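 Tumor cells were grown as complex spheroids with HUVEC endothelial cells and mesenchymal stem cells as stroma. G-quadruplex stabilizers were combined with targeted agents over half-log dilutions from near the clinical Cmax, or from 10 microM.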
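Also: spheroids exposed to agents for 7 days before readout.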
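For viability, T/C in this document: percent viability relative to DMSO vehicle control taken as 100%.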

COc1cccc2c1C(=O)c1c(O)c3c(c(O)c1C2=O)CC(O)(C(=O)CO)CC3OC1CC(N)C(O)C(C)O1 (configuration not stated) + CN(C)c1ccc(Nc2c3ccc(NC(=O)CCN4CCCC4)cc3nc3cc(NC(=O)CCN4CCCC4)ccc23)cc1
pIC50 (second compound 0.0316 µM): 7.02 | pIC50 (second compound 0.1 µM): 7.02 | pIC50 (second compound 0.316 µM): 7.03 | pIC50 (second compound 1 µM): 7.02 | pIC50 (second compound 3.16 µM): 7.04 | pIC50 (second compound 10 µM): 7.02 | viability, T/C (second compound 0.0316 µM, first compound 0.0316 µM): 80.9% | viability, T/C (second compound 0.0316 µM, first compound 0.1 µM): 39.6% | viability, T/C (second compound 0.0316 µM, first compound 0.316 µM): 41% | viability, T/C (second compound 0.0316 µM, first compound 1 µM): 10% | viability, T/C (second compound 0.0316 µM, first compound 3.16 µM): 0.59% | viability, T/C (second compound 0.0316 µM, first compound 10 µM): 0.64% | viability, T/C (second compound 0.1 µM, first compound 0.0316 µM): 79.7% | viability, T/C (second compound 0.1 µM, first compound 0.1 µM): 43.4% | viability, T/C (second compound 0.1 µM, first compound 0.316 µM): 35.5% | viability, T/C (second compound 0.1 µM, first compound 1 µM): 10.1% | viability, T/C (second compound 0.1 µM, first compound 3.16 µM): 0.47% | viability, T/C (second compound 0.1 µM, first compound 10 µM): 0.28% | viability, T/C (second compound 0.316 µM, first compound 0.0316 µM): 82.7% | viability, T/C (second compound 0.316 µM, first compound 0.1 µM): 37.8% | viability, T/C (second compound 0.316 µM, first compound 0.316 µM): 40.4% | viability, T/C (second compound 0.316 µM, first compound 1 µM): 9.85% | viability, T/C (second compound 0.316 µM, first compound 3.16 µM): 0.54% | viability, T/C (second compound 0.316 µM, first compound 10 µM): 0.34% | viability, T/C (second compound 1 µM, first compound 0.0316 µM): 83.1% | viability, T/C (second compound 1 µM, first compound 0.1 µM): 38.4% | viability, T/C (second compound 1 µM, first compound 0.316 µM): 40.9% | viability, T/C (second compound 1 µM, first compound 1 µM): 10.8% | viability, T/C (second compound 1 µM, first compound 3.16 µM): 0.57% | viability, T/C (second compound 1 µM, first compound 10 µM): 0.34% | viability, T/C (second compound 3.16 µM, first compound 0.0316 µM): 91.9% | viability, T/C (second compound 3.16 µM, first compound 0.1 µM): 37.6% | viability, T/C (second compound 3.16 µM, first compound 0.316 µM): 33.8% | viability, T/C (second compound 3.16 µM, first compound 1 µM): 9.5% | viability, T/C (second compound 3.16 µM, first compound 3.16 µM): 0.71% | viability, T/C (second compound 3.16 µM, first compound 10 µM): 0.36% | viability, T/C (second compound 10 µM, first compound 0.0316 µM): 85.8% | viability, T/C (second compound 10 µM, first compound 0.1 µM): 39% | viability, T/C (second compound 10 µM, first compound 0.316 µM): 37.6% | viability, T/C (second compound 10 µM, first compound 1 µM): 12.3% | viability, T/C (second compound 10 µM, first compound 3.16 µM): 1% | viability, T/C (second compound 10 µM, first compound 10 µM): 0.33%
